# ChEMBL document CHEMBL5528067, “From Synergy to Monotherapy: Discovery of Novel 2,4,6-Trisubstituted Triazine Hydrazone Derivatives with Potent Antifungal Potency In Vitro and In Vivo” (J Med Chem, 2024)
# Activity calls are given as the source filed them. No cut-off for these calls is given here.
# Legend:
# Candida albicans [1] = assay: Antifungal activity against FCZ-resistant Candida albicans SC5314 assessed as growth inhibition measured after 48 hrs incubation by CLSI based micro-dilution broth method; assay type: functional
# Candida albicans [2] = assay: Synergistic antifungal activity against FCZ-resistant Candida albicans strain 901 assessed as fractional inhibitory concentration index measured after 48 hrs in presence of FCZ by CLSI based micro-dilution broth method; assay type: functional
# Pichia kudriavzevii [3] = assay: Antifungal activity against Candida krusei 4996 assessed as growth inhibition measured after 48 hrs incubation by CLSI based micro-dilution broth method; assay type: functional
# Candida parapsilosis = assay: Antifungal activity against Candida parapsilosis 22019 assessed as growth inhibition measured after 48 hrs incubation by CLSI based micro-dilution broth method; assay type: functional; details: Lodderomyces parapsilosis
# Candida albicans [4] = assay: Antifungal activity against FCZ-resistant Candida albicans strain 904 assessed as growth inhibition measured after 48 hrs incubation by CLSI based micro-dilution broth method; assay type: functional
# Cryptococcus neoformans [5] = assay: Antifungal activity against Cryptococcus neoformans 32609 assessed as growth inhibition measured after 48 hrs incubation by CLSI based micro-dilution broth method; assay type: functional
# Candida tropicalis = assay: Antifungal activity against Candida tropicalis 8915 assessed as growth inhibition measured after 48 hrs incubation by CLSI based micro-dilution broth method; assay type: functional
# [Candida] auris [6] = Antifungal activity against FCZ-resistant Candida auris 919 assessed as growth inhibition measured after 48 hrs incubation by CLSI based micro-dilution broth method; assay type: functional; details: Candidozyma auris
# Candida albicans [7] = assay: Antifungal activity against FCZ-resistant Candida albicans strain 901 assessed as growth inhibition measured after 48 hrs incubation by CLSI based micro-dilution broth method; assay type: functional
# Candida albicans [8] = assay: Synergistic antifungal activity against FCZ-resistant Candida albicans strain 904 assessed as fractional inhibitory concentration index measured after 48 hrs in presence of FCZ by CLSI based micro-dilution broth method; assay type: functional
# Candida albicans [9] = assay: Antifungal activity against FCZ-resistant Candida albicans strain 904 assessed as growth inhibition in presence of fluconazole measured after 48 hrs incubation by CLSI based micro-dilution broth method; assay type: functional
# [Candida] auris [10] = Antifungal activity against FCZ-resistant Candida auris 918 assessed as growth inhibition measured after 48 hrs incubation by CLSI based micro-dilution broth method; assay type: functional; details: Candidozyma auris
# Candida albicans [11] = assay: Antifungal activity against FCZ-resistant Candida albicans strain 901 assessed as growth inhibition in presence of fluconazole measured after 48 hrs incubation by CLSI based micro-dilution broth method; assay type: functional
# Nakaseomyces glabratus [12] = assay: Antifungal activity against Candida glabrata 537 assessed as growth inhibition measured after 48 hrs incubation by CLSI based micro-dilution broth method; assay type: functional
# Candida albicans [13] = assay: Antifungal activity against FCZ-resistant Candida albicans 10231 assessed as growth inhibition measured after 48 hrs incubation by CLSI based micro-dilution broth method; assay type: functional
# [14] = Cytotoxicity against human HUVEC cells assessed as cell viability at 16 microg/ml measured after 24 hrs by CCK-8 assay relative to control; assay type: toxicity, cell-based; details: at 16 µg/mL, read-out: Activity
# [15] = Cytotoxicity against human HUVEC cells assessed as cell viability measured after 24 hrs by CCK-8 assay; assay type: toxicity, cell-based
# Candida albicans [16] = assay: In vivo antifungal activity against Candida albicans SC5314 infected in C57BL/6J mouse assessed as reduction in fungal burden in kidney at 10 mg/kg, po treated once a day for 2 days; assay type: functional, organism-based; details: time 2.0 day
# [17] = Hemolytic activity in rabbit Red blood cell assessed as hemolysis rate at 64 microg/ml incubated for 1 hr; assay type: toxicity, cell-based, Oryctolagus cuniculus, Erythrocyte; details: red blood cells, at 64 µg/mL, read-out: Activity
# Candida albicans [18] = assay: In vivo antifungal activity against Candida albicans SC5314 infected in C57BL/6J mouse assessed as reduction in fungal burden in kidney at 0.5 mg/kg, po treated once a day for 2 days; assay type: functional, organism-based; details: time 2.0 day
# Candida albicans [19] = assay: Antifungal activity against FCZ-resistant Candida albicans strains assessed as growth inhibition measured after 48 hrs incubation by CLSI based micro-dilution broth method; assay type: functional
# Candida albicans [20] = assay: Antifungal activity against FCZ-resistant Candida albicans SC5314 assessed as growth inhibition at 4 microg/ml measured at 12 hrs incubation by time growth assay; assay type: functional, organism-based; details: dose 4.0 µg/ml
# Cryptococcus neoformans [21] = assay: Antifungal activity against FCZ-resistant Cryptococcus neoformans 32609 assessed as growth inhibition at 1 microg/ml measured at 24 hrs incubation by time growth assay; assay type: functional, organism-based; details: dose 1.0 µg/ml
# Nakaseomyces glabratus [22] = assay: Antifungal activity against FCZ-resistant Candida glabrata 537 assessed as growth inhibition at 4 microg/ml measured at 12 hrs incubation by time growth assay; assay type: functional, organism-based; details: dose 4.0 µg/ml
# Candida albicans [23] = assay: Antifungal activity against FCZ-resistant Candida albicans strains assessed as growth inhibition in presence of (E)-2-((4,6-Bis((4-fluorobenzyl)amino)-1,3,5-triazin-2-yl)hydrazineylidene)methyl)-4-nitrophenol measured after 48 hrs incubation by CLSI based micro-dilution broth method; assay type: functional
# Pichia kudriavzevii [24] = assay: Antifungal activity against FCZ-resistant Candida krusei 4996 assessed as growth inhibition at 32 microg/ml measured at 24 hrs incubation by time growth assay; assay type: functional, organism-based; details: dose 32.0 µg/ml
# [25] = target: T1, Lanosterol 14-alpha demethylase (Candida albicans (strain SC5314 / ATCC MYA-2876) (Yeast), UniProt P10613); assay: Inhibition of CYP51 in Candida albicans SC5314 assessed as accumulation of eburicol at 4 microg/ml measured after 8 hrs by GC-MS analysis; details: dose 4 µg/ml
# T1 sequence (P10613 whole entry): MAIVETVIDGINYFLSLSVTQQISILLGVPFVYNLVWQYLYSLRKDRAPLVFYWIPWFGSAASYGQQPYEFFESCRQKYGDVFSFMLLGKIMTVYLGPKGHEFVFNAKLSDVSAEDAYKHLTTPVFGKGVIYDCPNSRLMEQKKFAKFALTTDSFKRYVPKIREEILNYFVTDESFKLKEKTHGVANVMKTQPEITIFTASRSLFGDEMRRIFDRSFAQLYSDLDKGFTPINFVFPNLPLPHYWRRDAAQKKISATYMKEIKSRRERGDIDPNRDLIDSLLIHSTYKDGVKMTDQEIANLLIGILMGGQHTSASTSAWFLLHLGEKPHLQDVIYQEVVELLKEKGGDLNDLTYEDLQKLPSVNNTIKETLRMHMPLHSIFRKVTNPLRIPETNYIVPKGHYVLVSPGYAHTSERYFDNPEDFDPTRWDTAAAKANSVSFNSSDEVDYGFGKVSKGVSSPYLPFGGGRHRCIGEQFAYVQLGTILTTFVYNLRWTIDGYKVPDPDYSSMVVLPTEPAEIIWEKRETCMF
# [26] = target: T1, Lanosterol 14-alpha demethylase; assay: Inhibition of CYP51 in Candida albicans SC5314 assessed as accumulation of obtusifoliol at 4 microg/ml measured after 8 hrs by GC-MS analysis; details: dose 4 µg/ml
# [27] = target: T1, Lanosterol 14-alpha demethylase; assay: Inhibition of CYP51 in Candida albicans SC5314 assessed as decrease in ergosterol biosynthesis at 4 microg/ml measured after 8 hrs by GC-MS analysis (reference value: 88.32%); parameters: scale not given: the % may be the effect or the level left; details: at 4 µg/mL
# [28] = target: T1, Lanosterol 14-alpha demethylase; assay: Inhibition of CYP51 in Candida albicans SC5314 assessed as accumulation of 14alpha-methylfecosterol at 4 microg/ml measured after 8 hrs by GC-MS analysis; details: dose 4 µg/ml
# [29] = Hemolytic activity in rabbit Red blood cell assessed as hemolysis rate at 8 microg/ml incubated for 1 hr; assay type: toxicity, cell-based, Oryctolagus cuniculus, Erythrocyte; details: red blood cells, at 8 µg/mL, read-out: Activity
# [30] = Metabolic stability in mouse liver microsomes assessed as half life measured upto 60 mins by LC-MS/MS analysis; assay type: ADME, Microsome
# [31] = Metabolic stability in mouse liver microsomes assessed as intrinsic clearance measured per mg of protein upto 60 mins by LC-MS/MS analysis; assay type: ADME, Microsome; details: read-out: CLH
Compound,MIC80 (Candida albicans [1]),fractional inhibitory concentration index (FICI) (Candida albicans [2]),MIC80 (Pichia kudriavzevii [3]),MIC80 (Candida parapsilosis),MIC80 (Candida albicans [4]),MIC80 (Cryptococcus neoformans [5]),MIC80 (Candida tropicalis),MIC80 ([Candida] auris [6]),MIC80 (Candida albicans [7]),fractional inhibitory concentration index (FICI) (Candida albicans [8]),MIC80 (Candida albicans [9]),MIC80 ([Candida] auris [10]),MIC80 (Candida albicans [11]),MIC80 (Nakaseomyces glabratus [12]),MIC80 (Candida albicans [13]),also measured
O=[N+]([O-])c1ccc(/C=N/Nc2nc(NCc3ccc(F)cc3)nc(NCc3ccc(F)cc3)n2)c(O)c1,> 64 µg/mL,0.38,> 64 µg/mL,> 64 µg/mL,2 µg/mL,> 64 µg/mL,> 64 µg/mL,> 64 µg/mL,2 µg/mL,0.38,0.5 µg/mL,> 64 µg/mL,0.5 µg/mL,2 µg/mL,> 64 µg/mL,–
NCCOCCOCCNC(=O)Cc1ccc(Nc2nc(NCc3ccc(F)cc3)nc(NCC3CCCCC3)n2)cc1,16 µg/mL,0.63,32 µg/mL,32 µg/mL,32 µg/mL,16 µg/mL,32 µg/mL,32 µg/mL,–,0.38,8 µg/mL,32 µg/mL,16 µg/mL,32 µg/mL,32 µg/mL,"viability at 24 h, 16 microg/ml [14]: 89.8%; IC50 at 24 h [15]: 48.2 µg/mL; Activity (Candida albicans [16]): Active; hemolysis at 1 h, 64 microg/ml [17]: 3.48%"
O=[N+]([O-])c1cccc(/C=N/Nc2nc(NCc3ccc(F)cc3)nc(NCc3ccc(F)cc3)n2)c1O,8 µg/mL,0.25,2 µg/mL,2 µg/mL,1 µg/mL,1 µg/mL,2 µg/mL,32 µg/mL,2 µg/mL,0.38,0.25 µg/mL,4 µg/mL,0.25 µg/mL,1 µg/mL,32 µg/mL,–
OC(Cn1cncn1)(Cn1cncn1)c1ccc(F)cc1F [FLUCONAZOLE],0.5 µg/mL,–,64 µg/mL,2 µg/mL,> 64 µg/mL,2 µg/mL,0.5 µg/mL,> 64 µg/mL,> 64 µg/mL,–,–,> 64 µg/mL,–,1 µg/mL,64 µg/mL,"viability at 24 h, 16 microg/ml [14]: 82.8%; Activity (Candida albicans [18]): Active; MIC80 (Candida albicans [19]): > 64 µg/mL; Activity (Candida albicans [20]): Active; Activity (Cryptococcus neoformans [21]): inactive; Activity (Nakaseomyces glabratus [22]): inactive; MIC80 (Candida albicans [23]): 1 µg/mL; Activity (Pichia kudriavzevii [24]): Active; Activity [25]: Active; hemolysis at 1 h, 64 microg/ml [17]: 23.9%; Activity [26]: Active; Activity [27]: 2.91%; Activity [28]: Active"
O=[N+]([O-])c1ccc(O)c(/C=N/Nc2nc(NCc3ccccc3)nc(NCc3ccc(F)cc3)n2)c1,2 µg/mL,–,1 µg/mL,4 µg/mL,–,2 µg/mL,2 µg/mL,16 µg/mL,–,–,–,4 µg/mL,–,0.5 µg/mL,8 µg/mL,–
COc1ccc(Nc2nc(NCc3ccco3)nc(N/N=C/c3cc([N+](=O)[O-])ccc3O)n2)cc1,2 µg/mL,–,1 µg/mL,4 µg/mL,–,2 µg/mL,4 µg/mL,8 µg/mL,–,–,–,8 µg/mL,–,0.5 µg/mL,8 µg/mL,–
Oc1ccccc1/C=N/Nc1nc(NCc2ccc(F)cc2)nc(NCc2ccc(F)cc2)n1,> 64 µg/mL,0.25,> 64 µg/mL,8 µg/mL,4 µg/mL,8 µg/mL,> 64 µg/mL,> 64 µg/mL,4 µg/mL,0.25,0.5 µg/mL,> 64 µg/mL,0.5 µg/mL,4 µg/mL,> 64 µg/mL,–
O=[N+]([O-])c1ccc(O)c(/C=N/Nc2nc(NCc3ccc(F)cc3)nc(N3CCOCC3)n2)c1,4 µg/mL,–,2 µg/mL,32 µg/mL,–,4 µg/mL,4 µg/mL,> 64 µg/mL,–,–,–,> 64 µg/mL,–,1 µg/mL,16 µg/mL,–
O=[N+]([O-])c1ccc(O)c(/C=N/Nc2nc(NCc3ccc(F)cc3)nc(NCC3CCCCC3)n2)c1,2 µg/mL,–,1 µg/mL,2 µg/mL,–,2 µg/mL,2 µg/mL,8 µg/mL,–,–,–,4 µg/mL,–,1 µg/mL,16 µg/mL,–
C[C@@H]1[C@H](O)[C@@H](C)/C=C/C=C/C=C/C=C/C=C/C=C/C=C/[C@H](O[C@@H]2O[C@H](C)[C@@H](O)[C@H](N)[C@@H]2O)C[C@@H]2O[C@](O)(C[C@@H](O)C[C@@H](O)[C@H](O)CC[C@@H](O)C[C@@H](O)CC(=O)O[C@H]1C)C[C@H](O)[C@H]2C(=O)O [AMPHOTERICIN B],–,–,–,–,–,–,–,–,–,–,–,–,–,–,–,"hemolysis at 1 h, 8 microg/ml [29]: 50.7%"
O=[N+]([O-])c1ccc(O)c(/C=N/Nc2nc(NCc3ccc(F)cc3)nc(NCc3ccco3)n2)c1,2 µg/mL,–,1 µg/mL,2 µg/mL,–,2 µg/mL,2 µg/mL,4 µg/mL,–,–,–,2 µg/mL,–,1 µg/mL,8 µg/mL,–
O=[N+]([O-])c1ccc(O)c(/C=N/Nc2nc(N3CCOCC3)nc(N3CCOCC3)n2)c1,> 64 µg/mL,–,> 64 µg/mL,> 64 µg/mL,–,> 64 µg/mL,> 64 µg/mL,> 64 µg/mL,–,–,–,> 64 µg/mL,–,> 64 µg/mL,> 64 µg/mL,–
Cc1ncc2n1-c1ccc(Cl)cc1C(c1ccccc1F)=NC2 [MIDAZOLAM],–,–,–,–,–,–,–,–,–,–,–,–,–,–,–,half-life [30]: 3.09 min; microsomal CLint [31]: 1120 µL/min/mg
O=[N+]([O-])c1ccc(O)c(/C=N/Nc2nc(NCc3ccco3)nc(NCc3ccco3)n2)c1,2 µg/mL,–,1 µg/mL,4 µg/mL,–,2 µg/mL,2 µg/mL,4 µg/mL,–,–,–,4 µg/mL,–,1 µg/mL,8 µg/mL,–
O=[N+]([O-])c1cccc(O)c1/C=N/Nc1nc(NCc2ccc(F)cc2)nc(NCc2ccc(F)cc2)n1,> 64 µg/mL,0.19,> 64 µg/mL,> 64 µg/mL,4 µg/mL,> 64 µg/mL,> 64 µg/mL,> 64 µg/mL,4 µg/mL,0.38,1 µg/mL,> 64 µg/mL,0.25 µg/mL,2 µg/mL,> 64 µg/mL,MIC80 (Candida albicans [19]): 4 µg/mL
